Results reported in ChEMBL document CHEMBL1201862, “PubChem BioAssay data set” (2004).
The source made the active and inactive calls.

Tests used:
[1] = biological target: Cytochrome P450 2C9 (Homo sapiens, UniProt P11712); conditions: Potency
[2] = biological target: Glyceraldehyde-3-phosphate dehydrogenase (Homo sapiens, UniProt P04406)
[3] = biological target: T1, Alkaline phosphatase, tissue-nonspecific isozyme (Homo sapiens, UniProt P05186); experiment: potency against alkaline phosphatase TNAP – biochemical, luminescent, dose response, SAR follow-up (AID 1056)
T1 sequence (P05186 whole entry): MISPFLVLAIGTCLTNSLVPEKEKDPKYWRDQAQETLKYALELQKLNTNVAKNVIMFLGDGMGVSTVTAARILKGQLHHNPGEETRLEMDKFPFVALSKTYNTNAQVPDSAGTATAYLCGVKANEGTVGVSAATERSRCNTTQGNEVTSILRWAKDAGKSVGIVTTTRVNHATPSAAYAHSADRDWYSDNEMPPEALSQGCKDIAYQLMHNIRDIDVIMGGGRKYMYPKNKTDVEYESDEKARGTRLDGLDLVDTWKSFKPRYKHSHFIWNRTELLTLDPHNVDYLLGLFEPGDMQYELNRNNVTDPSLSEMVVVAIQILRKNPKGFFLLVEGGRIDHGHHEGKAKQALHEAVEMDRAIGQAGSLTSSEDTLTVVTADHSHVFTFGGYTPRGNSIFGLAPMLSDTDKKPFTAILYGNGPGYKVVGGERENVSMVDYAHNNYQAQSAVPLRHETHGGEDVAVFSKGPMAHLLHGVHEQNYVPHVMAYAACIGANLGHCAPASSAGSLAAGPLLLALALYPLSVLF

[4] = biological target: Beta-galactosidase (Escherichia coli, UniProt Q8VNN2); experiment: detection-enzyme interference by beta-gal modulators – biochemical, E. coli enzyme, set 3, artefact control for CCR6 antagonist project, dose response (AID 504712); assay type: functional
[5] = biological target: T2, Polyadenylate-binding protein 1 (Homo sapiens, UniProt P11940); experiment: MLLE domain peptide-binding blockers, IC50 – biochemical, fluorescence polarization, FITC-PAM2 peptide, dose response (AID 602259); assay type: functional; conditions: read-out: IC50_Mean
T2 sequence (P11940 whole entry, the tested form may be a part): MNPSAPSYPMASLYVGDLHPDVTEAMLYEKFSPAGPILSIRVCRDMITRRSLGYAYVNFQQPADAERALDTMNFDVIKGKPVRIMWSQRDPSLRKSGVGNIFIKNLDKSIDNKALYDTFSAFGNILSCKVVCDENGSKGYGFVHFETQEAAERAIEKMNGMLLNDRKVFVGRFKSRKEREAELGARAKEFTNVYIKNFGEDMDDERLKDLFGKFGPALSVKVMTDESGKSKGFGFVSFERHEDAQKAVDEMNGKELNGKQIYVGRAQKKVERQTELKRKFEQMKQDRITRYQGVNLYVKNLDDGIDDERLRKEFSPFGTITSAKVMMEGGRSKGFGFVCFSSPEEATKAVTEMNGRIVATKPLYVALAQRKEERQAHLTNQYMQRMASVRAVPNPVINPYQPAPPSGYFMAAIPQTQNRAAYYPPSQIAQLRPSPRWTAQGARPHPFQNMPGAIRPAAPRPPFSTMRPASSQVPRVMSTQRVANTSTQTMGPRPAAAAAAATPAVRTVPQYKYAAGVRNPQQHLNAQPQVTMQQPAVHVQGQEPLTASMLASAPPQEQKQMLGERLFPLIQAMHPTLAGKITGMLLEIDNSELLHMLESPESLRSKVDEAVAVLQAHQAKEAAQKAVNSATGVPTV

[6] = biological target: T2, Polyadenylate-binding protein 1; experiment: MLLE binding blockers, Cy5 peptide tracer – biochemical, fluorescence polarization, Cy5-PAM2 peptide, secondary, miRNA deadenylation inhibitor project, dose response (AID 602260); assay type: functional; conditions: read-out: IC50_Mean
[7] = viability of uninfected HEp-2 cells – cell-based, HTS, cytotoxicity control for RSV inhibitor project, dose response (AID 2410); assay type: functional; conditions: human respiratory syncytial virus
[8] = cells
[9] = biological target: T3, Estrogen receptor (Homo sapiens, UniProt P03372);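 further: potency for inhibiting coactivator peptide recruitment to the receptor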
T3 sequence (P03372 whole entry): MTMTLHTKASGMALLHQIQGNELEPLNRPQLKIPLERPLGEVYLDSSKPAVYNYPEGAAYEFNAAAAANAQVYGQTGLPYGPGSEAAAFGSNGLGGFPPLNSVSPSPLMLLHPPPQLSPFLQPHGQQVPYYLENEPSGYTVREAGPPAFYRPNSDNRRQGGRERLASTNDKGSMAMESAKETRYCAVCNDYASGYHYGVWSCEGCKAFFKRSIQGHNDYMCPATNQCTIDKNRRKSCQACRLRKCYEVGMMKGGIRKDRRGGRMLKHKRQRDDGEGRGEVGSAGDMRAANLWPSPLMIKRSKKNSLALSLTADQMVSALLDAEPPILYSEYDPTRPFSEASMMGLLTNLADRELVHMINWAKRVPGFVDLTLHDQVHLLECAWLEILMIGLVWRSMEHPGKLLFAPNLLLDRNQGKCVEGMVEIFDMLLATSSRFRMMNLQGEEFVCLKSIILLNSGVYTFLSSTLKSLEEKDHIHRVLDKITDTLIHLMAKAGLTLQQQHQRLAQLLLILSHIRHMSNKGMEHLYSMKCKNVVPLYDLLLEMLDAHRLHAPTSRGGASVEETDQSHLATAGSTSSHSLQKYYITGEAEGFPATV

[10] = biological target: T4, Ubiquitin-conjugating enzyme E2 N (Homo sapiens, UniProt P61088); assay type: functional
T4 sequence (P61088 whole entry): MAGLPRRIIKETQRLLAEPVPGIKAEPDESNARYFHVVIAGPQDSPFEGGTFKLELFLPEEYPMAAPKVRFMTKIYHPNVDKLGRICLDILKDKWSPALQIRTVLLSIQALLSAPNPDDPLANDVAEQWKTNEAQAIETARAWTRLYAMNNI

[11] = biological target: T5, Short transient receptor potential channel 4 (Mus musculus, UniProt Q9QUQ5); experiment: calcium entry via TRPC4 opening agents – cell-based, HEK293 TRPC4/mu-opioid, Fluo-4 calcium, dose response (AID 434937); assay type: functional
T5 sequence (Q9QUQ5 whole entry): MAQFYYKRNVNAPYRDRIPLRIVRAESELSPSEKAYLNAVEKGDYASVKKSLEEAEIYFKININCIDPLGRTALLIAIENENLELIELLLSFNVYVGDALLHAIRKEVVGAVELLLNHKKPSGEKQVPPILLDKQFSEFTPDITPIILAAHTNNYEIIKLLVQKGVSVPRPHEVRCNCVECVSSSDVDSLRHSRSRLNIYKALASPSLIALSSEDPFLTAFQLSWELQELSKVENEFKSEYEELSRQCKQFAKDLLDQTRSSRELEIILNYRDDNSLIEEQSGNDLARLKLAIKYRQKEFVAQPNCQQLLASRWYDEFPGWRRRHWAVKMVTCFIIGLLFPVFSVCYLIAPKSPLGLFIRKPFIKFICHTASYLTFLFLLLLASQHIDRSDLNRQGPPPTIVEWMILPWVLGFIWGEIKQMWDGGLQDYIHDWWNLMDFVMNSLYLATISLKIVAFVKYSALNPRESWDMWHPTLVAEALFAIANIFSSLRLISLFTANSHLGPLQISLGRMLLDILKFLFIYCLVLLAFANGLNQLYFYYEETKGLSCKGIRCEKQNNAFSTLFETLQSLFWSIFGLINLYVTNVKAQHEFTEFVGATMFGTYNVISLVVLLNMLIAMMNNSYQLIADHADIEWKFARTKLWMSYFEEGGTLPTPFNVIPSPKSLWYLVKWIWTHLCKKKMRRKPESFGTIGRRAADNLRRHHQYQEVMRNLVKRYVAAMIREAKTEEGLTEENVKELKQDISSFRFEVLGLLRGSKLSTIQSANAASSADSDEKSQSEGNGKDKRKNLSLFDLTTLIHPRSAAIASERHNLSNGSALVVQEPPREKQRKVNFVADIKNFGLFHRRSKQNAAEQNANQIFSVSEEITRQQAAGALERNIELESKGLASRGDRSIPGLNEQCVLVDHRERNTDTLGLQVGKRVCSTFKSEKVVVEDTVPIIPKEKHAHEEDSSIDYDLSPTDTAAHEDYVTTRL

[12] = viability of HCT116 lacking mutant beta-catenin – cell-based, human colon tumor, dose response (AID 1045); assay type: functional;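 further: HCT116 colon tumor cells with beta catenin knocked out; cells exposed to compound for 60 hours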
[13] = viability of PTEN-deleted HCT116 cells – cell-based, HCT116 PTEN knockout, dose response (AID 1047); assay type: functional;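 further: HCT116 colon tumor cells with PTEN knocked out; cells exposed to compound for 60 hours before readout; potency for loss of cell viability measured by luminescence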
[14] = biological target: T6, Bcl-2-related protein A1 (Mus musculus, UniProt Q07440); assay type: functional;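 further: confirmatory dose–response counterscreen on Bfl-1, used to check hits from a UBC13 polyubiquitin inhibitor campaign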
T6 sequence (Q07440 whole entry): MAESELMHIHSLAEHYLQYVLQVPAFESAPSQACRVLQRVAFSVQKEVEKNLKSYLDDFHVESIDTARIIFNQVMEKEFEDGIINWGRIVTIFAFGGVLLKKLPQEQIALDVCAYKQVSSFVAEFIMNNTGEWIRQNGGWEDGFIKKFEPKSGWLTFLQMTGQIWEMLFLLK

[15] = Trypanosoma cruzi growth suppression in host cells – NIH3T3 host cells, beta-gal luminescence, confirmation (AID 2044); assay type: functional, cell-based;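 further: intracellular parasites grown in NIH/3T3 mouse fibroblasts as host cells; luminescent beta-galactosidase reporter signal from transgenic T. cruzi replicating inside host cells; inhibitors lower the luminescence signal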
[16] = biological target: T4, Ubiquitin-conjugating enzyme E2 N; assay type: functional; remark: listed apart in the source
[17] = NIH3T3 cell viability loss – ATP luminescence, mouse fibroblasts, counter-screen, dose response (AID 2010); assay type: functional, cell-based;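 further: cells exposed to compound for about 90 hours before reading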
[18] = biological target: T7, Voltage-gated N-type calcium channel alpha-1B subunit/Amyloid beta A4 precursor protein-binding family A member 1 (Homo sapiens, UniProt Q00975+Q02410); assay type: protein assay
T7 sequence (Q00975 whole entry): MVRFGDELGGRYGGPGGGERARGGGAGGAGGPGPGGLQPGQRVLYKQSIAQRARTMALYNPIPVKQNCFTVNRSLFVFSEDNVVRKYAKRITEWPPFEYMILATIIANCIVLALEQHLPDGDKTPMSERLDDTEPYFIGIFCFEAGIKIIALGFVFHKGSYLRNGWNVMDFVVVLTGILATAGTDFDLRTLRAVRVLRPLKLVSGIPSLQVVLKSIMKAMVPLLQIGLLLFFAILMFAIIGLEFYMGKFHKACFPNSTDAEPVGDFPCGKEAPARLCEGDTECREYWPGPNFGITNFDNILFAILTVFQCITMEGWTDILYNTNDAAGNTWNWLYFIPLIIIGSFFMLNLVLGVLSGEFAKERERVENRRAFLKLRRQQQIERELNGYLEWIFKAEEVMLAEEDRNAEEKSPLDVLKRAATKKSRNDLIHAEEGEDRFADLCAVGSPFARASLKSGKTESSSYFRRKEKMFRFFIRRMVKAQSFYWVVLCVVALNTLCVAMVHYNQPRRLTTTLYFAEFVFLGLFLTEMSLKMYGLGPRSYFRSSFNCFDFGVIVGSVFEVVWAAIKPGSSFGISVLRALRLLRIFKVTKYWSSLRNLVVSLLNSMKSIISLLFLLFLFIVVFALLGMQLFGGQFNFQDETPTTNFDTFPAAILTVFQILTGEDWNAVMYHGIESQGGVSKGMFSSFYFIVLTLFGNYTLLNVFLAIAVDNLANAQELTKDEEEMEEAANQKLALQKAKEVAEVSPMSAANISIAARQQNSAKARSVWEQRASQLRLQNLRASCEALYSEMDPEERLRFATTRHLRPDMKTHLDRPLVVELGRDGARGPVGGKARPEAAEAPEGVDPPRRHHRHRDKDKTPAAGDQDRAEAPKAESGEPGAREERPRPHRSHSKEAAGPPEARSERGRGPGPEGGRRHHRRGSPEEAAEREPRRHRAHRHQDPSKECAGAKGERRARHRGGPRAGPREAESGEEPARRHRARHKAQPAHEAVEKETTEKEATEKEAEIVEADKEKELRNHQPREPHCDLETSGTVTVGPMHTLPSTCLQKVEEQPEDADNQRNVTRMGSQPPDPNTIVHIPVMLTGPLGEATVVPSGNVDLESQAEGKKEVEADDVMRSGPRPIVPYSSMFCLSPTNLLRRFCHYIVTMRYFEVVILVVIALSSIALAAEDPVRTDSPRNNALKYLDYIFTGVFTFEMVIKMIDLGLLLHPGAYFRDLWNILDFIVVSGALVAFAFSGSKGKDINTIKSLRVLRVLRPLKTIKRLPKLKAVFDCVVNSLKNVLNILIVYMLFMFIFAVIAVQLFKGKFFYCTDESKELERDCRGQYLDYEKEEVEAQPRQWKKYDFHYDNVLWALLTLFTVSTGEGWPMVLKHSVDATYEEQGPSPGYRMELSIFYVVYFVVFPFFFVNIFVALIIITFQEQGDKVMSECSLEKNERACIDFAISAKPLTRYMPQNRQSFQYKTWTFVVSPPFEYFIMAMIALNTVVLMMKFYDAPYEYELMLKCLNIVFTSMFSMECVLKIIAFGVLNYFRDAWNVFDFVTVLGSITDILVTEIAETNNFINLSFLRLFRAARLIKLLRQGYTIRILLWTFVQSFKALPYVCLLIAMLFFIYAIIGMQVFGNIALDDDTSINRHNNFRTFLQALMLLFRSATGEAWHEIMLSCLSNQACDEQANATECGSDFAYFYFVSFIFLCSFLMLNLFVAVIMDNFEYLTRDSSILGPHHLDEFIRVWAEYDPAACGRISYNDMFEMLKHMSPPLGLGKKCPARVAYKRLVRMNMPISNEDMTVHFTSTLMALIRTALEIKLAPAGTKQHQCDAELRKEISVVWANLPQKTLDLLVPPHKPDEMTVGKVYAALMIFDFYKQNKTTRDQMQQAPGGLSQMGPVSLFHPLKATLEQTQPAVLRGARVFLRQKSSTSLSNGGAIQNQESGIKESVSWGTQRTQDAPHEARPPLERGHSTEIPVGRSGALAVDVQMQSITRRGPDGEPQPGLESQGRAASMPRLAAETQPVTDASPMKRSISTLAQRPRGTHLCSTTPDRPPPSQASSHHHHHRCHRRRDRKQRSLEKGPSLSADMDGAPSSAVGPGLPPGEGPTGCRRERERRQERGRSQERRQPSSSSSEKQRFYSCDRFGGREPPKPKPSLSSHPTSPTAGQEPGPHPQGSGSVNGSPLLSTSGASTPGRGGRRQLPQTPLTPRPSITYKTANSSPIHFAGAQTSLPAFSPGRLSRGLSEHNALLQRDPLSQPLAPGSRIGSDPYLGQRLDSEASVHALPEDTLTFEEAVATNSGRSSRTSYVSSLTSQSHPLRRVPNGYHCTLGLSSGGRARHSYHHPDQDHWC
T7 sequence (Q02410 whole entry): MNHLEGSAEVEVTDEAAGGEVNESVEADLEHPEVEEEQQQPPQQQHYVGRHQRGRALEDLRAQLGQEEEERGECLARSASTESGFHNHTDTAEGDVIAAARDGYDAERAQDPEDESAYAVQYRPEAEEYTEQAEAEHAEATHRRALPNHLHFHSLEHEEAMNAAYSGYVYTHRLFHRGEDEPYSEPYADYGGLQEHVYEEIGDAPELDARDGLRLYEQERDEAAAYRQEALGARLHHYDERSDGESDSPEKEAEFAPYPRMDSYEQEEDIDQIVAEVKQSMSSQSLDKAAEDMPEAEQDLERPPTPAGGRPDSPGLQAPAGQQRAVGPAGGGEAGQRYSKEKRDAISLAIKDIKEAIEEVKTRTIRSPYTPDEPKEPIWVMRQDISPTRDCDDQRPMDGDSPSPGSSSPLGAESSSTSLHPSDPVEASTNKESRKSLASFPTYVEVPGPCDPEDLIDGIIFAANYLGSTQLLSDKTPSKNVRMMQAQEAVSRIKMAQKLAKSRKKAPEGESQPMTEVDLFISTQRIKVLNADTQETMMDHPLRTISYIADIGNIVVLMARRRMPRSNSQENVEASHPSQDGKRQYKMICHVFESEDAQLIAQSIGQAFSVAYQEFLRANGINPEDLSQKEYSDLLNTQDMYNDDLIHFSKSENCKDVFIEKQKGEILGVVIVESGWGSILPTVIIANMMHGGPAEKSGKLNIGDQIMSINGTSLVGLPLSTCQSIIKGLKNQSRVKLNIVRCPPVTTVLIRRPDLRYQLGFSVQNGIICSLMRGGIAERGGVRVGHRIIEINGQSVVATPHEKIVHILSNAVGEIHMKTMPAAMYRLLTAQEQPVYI

[19] = biological target: T7, Voltage-gated N-type calcium channel alpha-1B subunit/Amyloid beta A4 precursor protein-binding family A member 1; assay type: protein assay; remark: listed apart in the source

Sequence of Glyceraldehyde-3-phosphate dehydrogenase (P04406 whole entry): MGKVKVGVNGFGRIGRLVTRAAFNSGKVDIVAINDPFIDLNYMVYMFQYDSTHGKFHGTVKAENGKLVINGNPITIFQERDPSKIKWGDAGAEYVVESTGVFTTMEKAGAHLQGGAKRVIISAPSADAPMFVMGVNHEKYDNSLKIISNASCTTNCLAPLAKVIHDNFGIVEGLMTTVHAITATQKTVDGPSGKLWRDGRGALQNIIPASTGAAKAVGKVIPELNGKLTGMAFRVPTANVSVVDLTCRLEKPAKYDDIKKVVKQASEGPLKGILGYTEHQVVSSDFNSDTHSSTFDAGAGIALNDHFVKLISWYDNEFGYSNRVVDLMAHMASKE
Sequence of Cytochrome P450 2C9 (P11712 whole entry): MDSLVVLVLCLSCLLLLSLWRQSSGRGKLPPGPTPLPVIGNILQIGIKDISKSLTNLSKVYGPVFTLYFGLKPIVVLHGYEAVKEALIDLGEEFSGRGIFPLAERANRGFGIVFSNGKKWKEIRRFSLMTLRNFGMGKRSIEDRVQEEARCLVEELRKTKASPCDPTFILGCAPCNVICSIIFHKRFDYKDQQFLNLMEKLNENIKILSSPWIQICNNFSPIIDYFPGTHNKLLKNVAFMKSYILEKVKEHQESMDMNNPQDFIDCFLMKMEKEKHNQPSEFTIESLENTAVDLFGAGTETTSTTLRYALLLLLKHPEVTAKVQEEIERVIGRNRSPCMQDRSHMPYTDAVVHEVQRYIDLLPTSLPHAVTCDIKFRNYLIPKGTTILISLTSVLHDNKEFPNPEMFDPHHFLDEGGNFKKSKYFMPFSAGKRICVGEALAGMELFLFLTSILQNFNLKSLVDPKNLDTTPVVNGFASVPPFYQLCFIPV

COc1ccc(/C=C/C2=CC3(C)CC2(C)C(c2ccc(OC)cc2)CC3=O)cc1 (centres undefined)
AC50 [1]: 7.94 µM (inconclusive)

O=C1C2CCCCC2C(=O)N1c1nc(CCc2ccccc2)n[nH]1 (centres undefined)
IC50 [2]: > 100 µM (not active) | IC50 [3]: > 100 µM (inactive)

CCCCn1c(N)c(C(=S)NC(=O)CC(C)(C)C)c(=O)n(C)c1=O
IC50 [4]: > 66.6 µM (inactive) | IC50 [5]: > 66 µM (inactive) | IC50 [6]: > 66 µM (inactive)

O=S(=O)(c1ccccc1F)N1CCC(c2nc(O)c3nnn(Cc4ccc5c(c4)OCCO5)c3n2)CC1
CC50 [7]: > 50 µM (active) | IC50 [8]: 45.3 µM (active)

Cc1ccccc1Nc1nc(N)nc(CSc2nc3ccccc3c(=O)n2C)n1
IC50 [9]: > 50 µM (not active)

COc1ccc(-c2cc(C#N)nc(N3CCNCC3)n2)cc1
IC50 [10]: 15.5 µM (active) | EC50 [11]: 1.88 µM (active) | EC50 [12]: 9.93 µM (active) | EC50 [13]: 15.2 µM (active) | IC50 [14]: > 20 µM (inactive) | EC50 [15]: 3.69 µM (active) | IC50 [16]: 15.9 µM (active) | EC50 [17]: > 60 µM (not active)

CC(C)CC(C(=O)NC(C)(C)C)N(Cc1ccccc1Cl)C(=O)c1snc(C(N)=O)c1N (centres undefined)
IC50 [10]: 14.5 µM (active) | IC50 [14]: > 20 µM (inactive) | IC50 [16]: 12.5 µM (active)

CCOC(=O)N1CCN(C(=O)CCN2C(=O)/C(=C\c3cccc(OC)c3)SC2=S)CC1
IC50 [18]: 28.4 µM (active) | IC50 [19]: > 50 µM (inactive)

CSc1ccc(S(=O)(=O)Nc2cccc(F)c2)cc1
IC50 [9]: 23.7 µM (active)

NNC(=O)c1cc(-c2ccc(F)cc2F)[nH]n1
IC50 [2]: > 10 µM (inconclusive) | IC50 [3]: 0.12 µM (active)

N#C/C(=C\c1ccc(OCCN2CCOCC2)cc1)C(=O)Nc1ccc(S(N)(=O)=O)cc1
IC50 [18]: 7.74 µM (active) | IC50 [19]: > 50 µM (inactive)

Cc1ccc(-c2nc3cccnc3s2)cc1NS(=O)(=O)c1cccs1
CC50 [7]: 20.4 µM (active) | IC50 [8]: 8.63 µM (active)
